Assay results reported in the NIST ThermoML archive (doi:10.1016/j.jct.2013.09.024).

Experiment: xn = mol fraction of the nth substance listed
Settings: Liquid, Vibrating tube method

CC1(C)C(=O)[C@]2(C)CC[C@H]1C2 [(-)-fenchone] + CCO
mass density [kg/m3]
Settings	283.15 K	298.15 K	313.15 K	328.15 K
101 kPa, x1 = 0.0481	817.48	804.6	791.46	777.95
101 kPa, x1 = 0.0985	834.96	822.02	808.84	795.29
101 kPa, x1 = 0.2002	862.89	849.9	836.65	823.07
101 kPa, x1 = 0.3002	883.74	870.72	857.52	844.02
101 kPa, x1 = 0.4031	900.59	887.59	874.42	861.01
101 kPa, x1 = 0.5012	913.56	900.59	887.46	874.13
101 kPa, x1 = 0.5976	924.09	911.15	898.09	884.87
101 kPa, x1 = 0.697	933.16	920.28	907.3	894.19
101 kPa, x1 = 0.7897	940.31	927.48	914.58	901.6
101 kPa, x1 = 0.899	947.57	934.83	922.06	909.23
101 kPa, x1 = 0.9486	950.46	937.77	925.06	912.33
101 kPa, x1 = 1	953.27	940.67	928.04	915.39
20000 kPa, x1 = 0.051	833.5	822	810.1	798
20000 kPa, x1 = 0.0992	849.7	838	826.1	813.9
20000 kPa, x1 = 0.199	876.6	864.9	852.8	840.6
20000 kPa, x1 = 0.301	897.5	885.7	873.6	861.4
20000 kPa, x1 = 0.3968	913	901.1	889.1	876.8
20000 kPa, x1 = 0.4976	926.2	914.3	902.4	890.1
20000 kPa, x1 = 0.5924	936.5	924.6	912.6	900.5
20000 kPa, x1 = 0.6956	945.8	934	922	910.1
20000 kPa, x1 = 0.7942	953.4	941.6	929.7	917.8
20000 kPa, x1 = 0.8929	959.7	948.1	936.3	924.4
20000 kPa, x1 = 0.9454	962.8	951.2	939.4	927.7
20000 kPa, x1 = 1	965.6	954	942.3	930.8
25000 kPa, x1 = 0.051	837	825.6	814	802.1
25000 kPa, x1 = 0.0992	853.1	841.6	829.9	818
25000 kPa, x1 = 0.199	879.9	868.3	856.5	844.6
25000 kPa, x1 = 0.301	900.6	889.1	877.2	865.3
25000 kPa, x1 = 0.3968	916.1	904.4	892.6	880.6
25000 kPa, x1 = 0.4976	929.2	917.6	905.9	893.7
25000 kPa, x1 = 0.5924	939.4	927.8	916	904.1
25000 kPa, x1 = 0.6956	948.7	937.1	925.3	913.7
25000 kPa, x1 = 0.7942	956.3	944.7	933	921.3
25000 kPa, x1 = 0.8929	962.6	951.1	939.6	927.9
25000 kPa, x1 = 0.9454	965.7	954.2	942.7	931.2
25000 kPa, x1 = 1	968.5	957.1	945.6	934.2
30000 kPa, x1 = 0.051	840.3	829.1	817.7	806.1
30000 kPa, x1 = 0.0992	856.3	845	833.6	821.9
30000 kPa, x1 = 0.199	883	871.7	860	848.3
30000 kPa, x1 = 0.301	903.7	892.3	880.6	869
30000 kPa, x1 = 0.3968	919.1	907.6	895.9	884.2
30000 kPa, x1 = 0.4976	932.2	920.7	909.2	897.3
30000 kPa, x1 = 0.5924	942.3	930.9	919.2	907.7
30000 kPa, x1 = 0.6956	951.6	940.2	928.5	917.2
30000 kPa, x1 = 0.7942	959.1	947.7	936.1	924.8
30000 kPa, x1 = 0.8929	965.5	954.1	942.7	931.4
30000 kPa, x1 = 0.9454	968.5	957.2	945.8	934.5
30000 kPa, x1 = 1	971.3	960	948.7	937.6
35000 kPa, x1 = 0.051	843.4	832.5	821.3	810
35000 kPa, x1 = 0.0992	859.4	848.3	837.1	825.7
35000 kPa, x1 = 0.199	886	874.8	863.5	852
35000 kPa, x1 = 0.301	906.6	895.4	883.9	872.5
35000 kPa, x1 = 0.3968	922	910.6	899.2	887.7
35000 kPa, x1 = 0.4976	935	923.7	912.4	900.8
35000 kPa, x1 = 0.5924	945.2	933.9	922.5	911.1
35000 kPa, x1 = 0.6956	954.4	943.2	931.7	920.6
35000 kPa, x1 = 0.7942	961.9	950.6	939.3	928.1
35000 kPa, x1 = 0.8929	968.2	957	945.8	934.7
35000 kPa, x1 = 0.9454	971.2	960.1	948.9	937.8
35000 kPa, x1 = 1	974	962.9	951.8	940.9
40000 kPa, x1 = 0.051	846.5	835.7	824.8	813.7
40000 kPa, x1 = 0.0992	862.5	851.5	840.5	829.3
40000 kPa, x1 = 0.199	889	877.9	866.8	855.5
40000 kPa, x1 = 0.301	909.5	898.4	887.1	876
40000 kPa, x1 = 0.3968	924.8	913.6	902.4	891.1
40000 kPa, x1 = 0.4976	937.8	926.7	915.5	904.2
40000 kPa, x1 = 0.5924	947.9	936.7	925.5	914.4
40000 kPa, x1 = 0.6956	957.1	946	934.7	923.8
40000 kPa, x1 = 0.7942	964.6	953.5	942.3	931.4
40000 kPa, x1 = 0.8929	970.9	959.8	948.8	937.8
40000 kPa, x1 = 0.9454	973.8	962.9	951.9	941
40000 kPa, x1 = 1	976.6	965.7	954.7	944
